# Laboratory results taken from US9611258B2, “Dual MEK/PI3K inhibitors and therapeutic methods using the same” (THE REGENTS OF THE UNIVERSITY OF MICHIGAN, priority 2013, dated 2017).
# Legend:
# PI3K = PI3K lipid kinase activity, Adapta TR-FRET assay with purified enzyme; type: biochemical; conditions: for IC50: read-out: PI3K inhibition IC50
# Protocol: (§1) Quantitation of PI3K lipid kinase activity of a present compound is determined with purified enzyme using the fluorescence-based Adapta™ TR-FRET assay from InVitrogen (Wisconsin, USA). Quantitation of MEK1 kinase activity of a present compound is determined with purified enzyme using the LanthaScreen® displacement binding assay (Tracer 236) from InVitrogen (Wisconsin, USA). Cellular screening is carried in cultured Panc-1 cells treated for 1 hour with varied doses of the test compound. Effects on pERK and pAKT expression are evaluated by immunoblotting using phospho-specific antibodies (pAKT [Ser473] and pERK1/2 [Thr202/Tyr204]) from Cell Signaling Technology.
# (§2) In Vitro Biochemical and Cell-Based Assays. Detection of PI3K lipid kinase activity was conducted with purified enzyme using the fluorescence-based Adapta™ TR-FRET assay from Invitrogen (Wisconsin, USA). Detection of the MEK1 kinase activity was conducted with purified enzyme using the LanthaScreen® displacement binding assay (Tracer 236) from Invitrogen (Wisconsin, USA). Evaluation of off-target kinase activity was conducted against the kinase screening panel provided by Invitrogen (Wisconsin, USA).
# PI3K isoforms = experiment: PI3K isoform potency; type: biochemical
# Protocol: as §2
# pERK1/2 [Thr202/Tyr204] = experiment: Cellular pERK expression by immunoblotting in Panc-1 cells; type: cell-based; conditions: Panc-1 cells treated for 1 hour, immunoblot
# Protocol: as §1
# (§3) Cells were cultured in Dulbecco's Modified Eagle's Medium (DMEM) and 10% FBS, and grown in a 37° C. incubator with 5% CO2. Cells were plated at 3×10^5 cells/well in 6 well plates, and the following day were treated for 1 hr at 37° C. Cells were lysed in 50 mM Tris, 1% NP-40, 150 mM NaCl, 10% glycerol, 1 mM EDTA with 1× protease inhibitor (complete; Roche Applied Science) and phosphatase inhibitors (PhosSTOP, Roche Applied Science). Protein concentration was determined with a Dc Protein Assay Kit (BioRad). Proteins were resolved by SDS-PAGE and transferred to nitrocellulose membranes. […]
# pAKT [Ser473] = experiment: Cellular pAKT expression by immunoblotting in Panc-1 cells; type: cell-based; conditions: Panc-1 cells treated for 1 hour, immunoblot
# Protocol: as §1, §3
# PKCα = biological target: T1, PKCα (Homo sapiens, UniProt P17252); experiment: Off-target kinase selectivity panel (Invitrogen); type: biochemical; conditions: read-out: IC50 against PKCα
# T1 construct: purchased Invitrogen
# Protocol: as §2
# ERK = experiment: Off-target kinase selectivity panel (Invitrogen); type: biochemical; conditions: read-out: IC50 against ERK
# Protocol: as §2
# EGFR = biological target: T2, EGFR (Homo sapiens, UniProt P00533); experiment: Off-target kinase selectivity panel (Invitrogen); type: biochemical; conditions: read-out: IC50 against EGFR
# T2 construct: purchased Invitrogen
# T2 sequence (P00533 25-1210): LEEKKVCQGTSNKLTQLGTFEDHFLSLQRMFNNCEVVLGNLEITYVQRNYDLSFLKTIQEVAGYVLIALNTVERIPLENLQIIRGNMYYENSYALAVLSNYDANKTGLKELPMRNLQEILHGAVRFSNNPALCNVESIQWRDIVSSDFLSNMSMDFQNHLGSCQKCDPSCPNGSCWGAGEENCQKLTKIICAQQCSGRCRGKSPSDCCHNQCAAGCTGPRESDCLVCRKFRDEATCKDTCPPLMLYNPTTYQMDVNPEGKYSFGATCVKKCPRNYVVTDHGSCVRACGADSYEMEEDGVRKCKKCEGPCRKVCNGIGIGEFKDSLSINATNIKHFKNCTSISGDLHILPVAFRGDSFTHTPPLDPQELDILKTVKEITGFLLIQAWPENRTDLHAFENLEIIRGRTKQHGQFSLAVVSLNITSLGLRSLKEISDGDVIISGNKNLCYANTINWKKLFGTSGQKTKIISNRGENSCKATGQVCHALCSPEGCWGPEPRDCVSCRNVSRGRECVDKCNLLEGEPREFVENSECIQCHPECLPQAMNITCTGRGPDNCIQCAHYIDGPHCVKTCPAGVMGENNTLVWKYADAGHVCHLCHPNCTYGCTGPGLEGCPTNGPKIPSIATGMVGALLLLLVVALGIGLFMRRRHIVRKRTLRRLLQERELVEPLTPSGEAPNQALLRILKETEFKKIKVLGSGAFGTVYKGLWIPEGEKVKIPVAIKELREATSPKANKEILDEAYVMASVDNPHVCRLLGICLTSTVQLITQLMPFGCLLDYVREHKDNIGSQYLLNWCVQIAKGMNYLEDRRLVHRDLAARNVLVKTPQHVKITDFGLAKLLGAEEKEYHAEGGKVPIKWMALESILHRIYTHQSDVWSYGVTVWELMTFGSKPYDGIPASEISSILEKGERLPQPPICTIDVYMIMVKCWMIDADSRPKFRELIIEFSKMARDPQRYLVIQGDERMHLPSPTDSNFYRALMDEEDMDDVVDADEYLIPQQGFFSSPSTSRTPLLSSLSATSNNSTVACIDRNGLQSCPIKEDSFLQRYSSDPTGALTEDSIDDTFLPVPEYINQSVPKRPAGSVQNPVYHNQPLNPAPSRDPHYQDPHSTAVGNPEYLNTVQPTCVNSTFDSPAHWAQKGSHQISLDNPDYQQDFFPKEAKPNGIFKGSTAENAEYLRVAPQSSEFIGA
# Protocol: as §2
# AurB = biological target: T3, AurB (Homo sapiens, UniProt Q96GD4); experiment: Off-target kinase selectivity panel (Invitrogen); type: biochemical; conditions: read-out: IC50 against AurB
# T3 construct: purchased Invitrogen
# T3 sequence (Q96GD4 whole entry): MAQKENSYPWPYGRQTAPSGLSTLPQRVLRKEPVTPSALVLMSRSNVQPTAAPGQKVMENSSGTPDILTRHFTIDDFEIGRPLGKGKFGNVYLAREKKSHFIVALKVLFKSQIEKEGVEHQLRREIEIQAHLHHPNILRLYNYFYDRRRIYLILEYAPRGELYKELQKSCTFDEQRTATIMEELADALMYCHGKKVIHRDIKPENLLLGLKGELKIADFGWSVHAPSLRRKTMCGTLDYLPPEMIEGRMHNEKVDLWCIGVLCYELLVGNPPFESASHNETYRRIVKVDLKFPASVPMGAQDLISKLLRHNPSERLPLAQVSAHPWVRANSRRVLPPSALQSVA
# Protocol: as §2
# MEK1 = MEK1 (Homo sapiens, UniProt Q02750); experiment: MEK1 LanthaScreen displacement binding assay (Tracer 236) with purified enzyme; conditions: in vitro, read-out: MEK inhibition IC50
# Sequence of MEK1 (Q02750 whole entry): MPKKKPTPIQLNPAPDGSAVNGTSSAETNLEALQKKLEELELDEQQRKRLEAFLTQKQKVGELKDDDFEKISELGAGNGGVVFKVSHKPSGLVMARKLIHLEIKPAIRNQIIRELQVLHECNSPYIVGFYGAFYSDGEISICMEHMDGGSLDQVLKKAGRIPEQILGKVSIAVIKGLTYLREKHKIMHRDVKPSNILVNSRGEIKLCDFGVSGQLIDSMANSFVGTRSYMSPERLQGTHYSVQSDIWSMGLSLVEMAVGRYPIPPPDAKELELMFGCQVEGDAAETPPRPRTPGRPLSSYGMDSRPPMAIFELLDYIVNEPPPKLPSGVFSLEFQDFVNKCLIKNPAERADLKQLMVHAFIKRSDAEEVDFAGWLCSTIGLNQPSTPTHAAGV
structure (smiles),measurement,setting,value
FC(F)c1nc2ccccc2n1-c1nc(N2CCNCC2)nc(N2CCOCC2)n1 [MV3-42B],IC50,"PI3K; in vitro, purified enzyme",100 nM
O=C(CCCCC[N+](=O)[O-])N1CCN(c2nc(N3CCOCC3)nc(-n3c(C(F)F)nc4ccccc43)n2)CC1 [MV3-44B],PI3K inhibition IC50,"PI3K; in vitro, purified enzyme, bound printed without a number",>μM
NCCCCCC(=O)N1CCN(c2nc(N3CCOCC3)nc(-n3c(C(F)F)nc4ccccc43)n2)CC1 [MV3-46A],IC50,"PI3K; in vitro, purified enzyme",< 100 nM
same,improvement in PI3K binding affinity,PI3K; nitro group (MV3-44B) converted to amino group,10 fold
Cc1c(Cc2cccc(N(C)S(=O)(=O)CCCNCCCCCC(=O)N3CCN(c4nc(N5CCOCC5)nc(-n5c(C(F)F)nc6ccccc65)n4)CC3)c2)c(=O)oc2cc(OC(=O)N(C)C)ccc12 [MV3-65A],IC50,"PI3K; in vitro, purified enzyme",370 nM
same,potency against all of the PI3K isoforms,PI3K isoforms,comparably potent against all of the PI3K isoforms
same,cellular inhibition of pERK expression,pERK1/2 [Thr202/Tyr204],cellular inhibition of both pERK and pAKT expression was observed
same,cellular inhibition of pAKT expression,pAKT [Ser473],cellular inhibition of both pERK and pAKT expression was observed
same,IC50,PKCα,> 10000 nM
same,IC50,ERK,> 10000 nM
same,IC50,EGFR,> 10000 nM
same,IC50,AurB,> 10000 nM
same,IC50,MEK1,501 nM
